From patent US20250171438A1 (Agios Pharmaceuticals, Inc., priority 2022, published 2025)

molecular target: T1, human PAH with the R408W mutation (Homo sapiens, UniProt P00439, R408W); experiment: Cell Based Phenylalanine Flux Assay; parameters: scale not given here; settings: A375 cells expressing human R408W PAH; 24 hrs compound incubation; 13C-Tyrosine by LC-MS; average where tested multiple times; read-out: AC50
T1 construct: expressed in transfected cells
T1 sequence (P00439 1-452 R408W): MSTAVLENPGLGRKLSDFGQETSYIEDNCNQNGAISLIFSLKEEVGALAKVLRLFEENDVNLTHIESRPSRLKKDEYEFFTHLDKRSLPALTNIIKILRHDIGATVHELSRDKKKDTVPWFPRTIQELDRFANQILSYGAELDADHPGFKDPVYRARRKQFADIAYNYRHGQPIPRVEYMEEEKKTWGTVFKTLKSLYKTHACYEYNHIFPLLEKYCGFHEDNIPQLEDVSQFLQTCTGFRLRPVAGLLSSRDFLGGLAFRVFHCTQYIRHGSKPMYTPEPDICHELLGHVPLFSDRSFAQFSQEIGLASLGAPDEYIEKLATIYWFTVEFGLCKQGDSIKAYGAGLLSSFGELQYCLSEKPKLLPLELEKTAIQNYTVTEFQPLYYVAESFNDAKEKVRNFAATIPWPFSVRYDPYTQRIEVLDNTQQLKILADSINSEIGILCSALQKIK

Row | Structure (SMILES) | AC50 [µM]
1 | Cc1nc(-c2cnn(C(C)C)c2)oc1C(=O)N1CCc2[nH]cnc2[C@@H]1c1nc2ccccc2s1 [Example 1424, (R)-(4-(benzo[d]thiazol-2-yl)-6,7-dihydro-1H-imidazo[4,5-c]pyridin-5(4H)-yl)(2-(1-isopropyl-1H-pyrazol-4-yl)-4-methyloxazol-5-yl)methanone] | 1 to 5
2 | CC(C)(F)c1ncc(C(=O)N2CCc3[nH]cnc3[C@H]2c2nc3ccccc3s2)o1 [Example 1455] | < 0.5
3 | Cc1nc(C(C)(C)C)oc1C(=O)N1CCc2[nH]cnc2[C@@H]1c1nc2c(F)cccc2s1 [Example 1434, (R)-(2-(tert-butyl)-4-methyloxazol-5-yl)(4-(4-fluorobenzo[d]thiazol-2-yl)-6,7-dihydro-1H-imidazo[4,5-c]pyridin-5(4H)-yl)methanone] | 1 to 5
4 | O=C(c1cnsc1)N1CCc2[nH]cnc2[C@H]1c1nc2ccccc2s1 [Example 1061] | 0.5 to 1
5 | CCn1cnnc1C(=O)N1CCc2[nH]cnc2[C@H]1c1nc2ccccc2s1 [Example 2078] | < 0.5
6 | Cn1cc(C(=O)N2CCc3[nH]cnc3[C@@H]2c2nc3c(F)cccc3s2)c(Cl)n1 [Example 1643, (R)-(3-chloro-1-methyl-1H-pyrazol-4-yl)(4-(4-fluorobenzo[d]thiazol-2-yl)-6,7-dihydro-1H-imidazo[4,5-c]pyridin-5(4H)-yl)methanone] | 1 to 5
7 | O=C(c1oc(-c2ccccn2)nc1C1CC1)N1CCCc2[nH]cnc2[C@H]1c1nc2ccccc2s1 [Example 2119, (S)-(4-(benzo[d]thiazol-2-yl)-7,8-dihydroimidazo[4,5-c]azepin-5(1H,4H,6H)-yl)(4-cyclopropyl-2-(pyridin-2-yl)oxazol-5-yl)methanone] | 0.5 to 1
8 | O=C(c1ncn2ccccc12)N1CCc2[nH]cnc2[C@H]1c1nc2c(F)cccc2s1 [Example 1143, (S)-(4-(4-fluorobenzo[d]thiazol-2-yl)-6,7-dihydro-1H-imidazo[4,5-c]pyridin-5(4H)-yl)(imidazo[1,5-a]pyridin-1-yl)methanone] | 0.5 to 1
9 | O=C(c1cnc(-c2ccc(F)cn2)s1)N1CCc2[nH]cnc2[C@@H]1c1nc2ccccc2s1 [Example 1340, (R)-(4-(benzo[d]thiazol-2-yl)-6,7-dihydro-1H-imidazo[4,5-c]pyridin-5(4H)-yl)(2-(5-fluoropyridin-2-yl)thiazol-5-yl)methanone] | 1 to 5
10 | CC[C@H](O)c1nc(C(F)F)c(C(=O)N2CCc3[nH]cnc3[C@@H]2c2nc3c(F)cccc3s2)o1 [Example 2064, (4-(difluoromethyl)-2-((S)-1-hydroxypropyl)oxazol-5-yl)((R)-4-(4-fluorobenzo[d]thiazol-2-yl)-6,7-dihydro-1H-imidazo[4,5-c]pyridin-5(4H)-yl)methanone] | 1 to 5
11 | CC(C)(O)c1nc(Cl)c(C(=O)N2CCc3[nH]cnc3[C@H]2c2nc3ccccc3s2)o1 [Example 1963] | < 0.5
12 | O=C(c1nnc(-c2cc[nH]n2)o1)N1CCc2[nH]cnc2[C@H]1c1nc2ccccc2s1 [Example 1899] | < 0.5
13 | O=C(c1cnn2ccc(Br)cc12)N1CCc2[nH]cnc2[C@H]1c1nc2cccc(F)c2s1 [Example 1283] | < 0.5
14 | O=C(c1cnn2ccc(F)cc12)N1CCc2[nH]cnc2[C@H]1c1nc2ccccc2[nH]1 [Example 944, (S)-(4-(1H-benzo[d]imidazol-2-yl)-6,7-dihydro-1H-imidazo[4,5-c]pyridin-5(4H)-yl)(5-fluoropyrazolo[1,5-a]pyridin-3-yl)methanone] | 0.5 to 1
15 | O=C(c1cnc(-c2cc(C(F)(F)F)ccn2)s1)N1CCc2[nH]cnc2[C@@H]1c1nc2ccccc2s1 [Example 1358, (R)-(4-(benzo[d]thiazol-2-yl)-6,7-dihydro-1H-imidazo[4,5-c]pyridin-5(4H)-yl)(2-(4-(trifluoromethyl)pyridin-2-yl)thiazol-5-yl)methanone] | 1 to 5
16 | O=C(c1cnn2ccc(Cl)cc12)N1CCc2[nH]cnc2[C@@H]1c1nc2c(F)cccc2s1 [Example 1196, (R)-(5-chloropyrazolo[1,5-a]pyridin-3-yl)(4-(4-fluorobenzo[d]thiazol-2-yl)-6,7-dihydro-1H-imidazo[4,5-c]pyridin-5(4H)-yl)methanone] | 1 to 5
17 | O=C(c1cncs1)N1CCc2[nH]cnc2[C@H]1c1nc2ccccc2s1 [Example 1059] | < 0.5
18 | Cc1nn(C)cc1-c1nnc(C(=O)N2CCc3[nH]cnc3[C@@H]2c2nc3ccccc3s2)o1 [Example 1926, (R)-(4-(benzo[d]thiazol-2-yl)-6,7-dihydro-1H-imidazo[4,5-c]pyridin-5(4H)-yl)(5-(1,3-dimethyl-1H-pyrazol-4-yl)-1,3,4-oxadiazol-2-yl)methanone] | 1 to 5
19 | Cc1nc(C2CC2)oc1C(=O)N1CCc2[nH]cnc2[C@H]1c1nc2ccccc2s1 [Example 1395] | < 0.5
20 | O=C(c1nnc(-c2ccc(F)cn2)o1)N1CCc2[nH]cnc2[C@H]1c1nc2c(F)cccc2s1 [Example 1711, (S)-(4-(4-fluorobenzo[d]thiazol-2-yl)-6,7-dihydro-1H-imidazo[4,5-c]pyridin-5(4H)-yl)(5-(5-fluoropyridin-2-yl)-1,3,4-oxadiazol-2-yl)methanone] | 1 to 5
21 | CC(C)(C#N)c1nc(C(F)F)c(C(=O)N2CCc3[nH]cnc3[C@@H]2c2nc3c(F)cccc3s2)o1 [Example 2028, (R)-2-(4-(difluoromethyl)-5-(4-(4-fluorobenzo[d]thiazol-2-yl)-4,5,6,7-tetrahydro-1H-imidazo[4,5-c]pyridine-5-carbonyl)oxazol-2-yl)-2-methylpropanenitrile] | < 0.5
22 | CC(C)(F)c1nnc(C(=O)N2CCc3[nH]cnc3[C@H]2c2nc3ccccc3s2)o1 [Example 1834] | < 0.5
23 | O=C(c1cnn2ccc(F)cc12)N1CCc2[nH]cnc2[C@H]1c1nc2ccccc2s1 [Example 1103] | 0.5 to 1
24 | O=C(c1ccnn1C(F)F)N1CCc2[nH]cnc2[C@@H]1c1nc2ccccc2s1 [Example 1818, (R)-(4-(benzo[d]thiazol-2-yl)-6,7-dihydro-1H-imidazo[4,5-c]pyridin-5(4H)-yl)(1-(difluoromethyl)-1H-pyrazol-5-yl)methanone] | 1 to 5
25 | O=C(c1nncn1C1CC1)N1CCc2[nH]cnc2[C@@H]1c1nc2c(F)cccc2s1 [Example 2083, (R)-(4-cyclopropyl-4H-1,2,4-triazol-3-yl)(4-(4-fluorobenzo[d]thiazol-2-yl)-6,7-dihydro-1H-imidazo[4,5-c]pyridin-5(4H)-yl)methanone] | 1 to 5
26 | COC(C)(C)c1nc(C)c(C(=O)N2CCc3[nH]cnc3[C@@H]2c2nc3c(F)cccc3s2)o1 [Example 1915, (R)-(4-(4-fluorobenzo[d]thiazol-2-yl)-6,7-dihydro-1H-imidazo[4,5-c]pyridin-5(4H)-yl)(2-(2-methoxypropan-2-yl)-4-methyloxazol-5-yl)methanone] | > 5
27 | O=C(c1ocnc1C1CC1)N1CCc2[nH]cnc2[C@H]1c1nc2ccccc2s1 [Example 1327] | < 0.5
28 | O=C(c1cnc(-c2ccc(F)cn2)o1)N1CCc2[nH]cnc2[C@@H]1c1nc2ccccc2s1 [Example 1338, (R)-(4-(benzo[d]thiazol-2-yl)-6,7-dihydro-1H-imidazo[4,5-c]pyridin-5(4H)-yl)(2-(5-fluoropyridin-2-yl)oxazol-5-yl)methanone] | 1 to 5

same assay, conditions: A375 cells expressing human R408W PAH; 24 hrs with compound; 13C-Tyrosine by LC-MS; average where tested multiple times

Row | Structure (SMILES) | AC50
29 | CN(C)Cc1nc(C(F)(F)F)c(C(=O)N2CCc3[nH]cnc3C2c2nc3ccccc3s2)o1 (centres unmarked) | E, E

same assay, conditions: A375 cells expressing human R408W PAH; 24 hrs with compound; 13C-Tyrosine by LC-MS; average where tested multiple times; read-out: AC50

Row | Structure (SMILES) | AC50 [µM]
30 | COc1cccc(C=CC(=O)N2CCc3[nH]cnc3C2c2nc3ccccc3[nH]2)c1 (centres unmarked) | > 5
31 | NC(=O)Cn1ncc(C(=O)N2CCc3[nH]cnc3C2c2nc3c(F)cccc3s2)c1C(F)F (centres unmarked) | 1 to 5
32 | c1ccc2sc(C3c4nc[nH]c4CCN3CC3CC3)nc2c1 (centres unmarked) | > 5
33 | O=C(Cc1noc2ccccc12)N1CCc2[nH]cnc2C1c1nc2ccccc2[nH]1 (centres unmarked) | > 5
34 | O=C(c1cnn2cc(Cc3ccccc3)ccc12)N1CCc2[nH]cnc2C1c1nc2ccccc2s1 (centres unmarked) | 1 to 5
35 | Cc1ncc(CC(=O)N2CCc3[nH]cnc3C2c2nc3ccccc3s2)o1 (centres unmarked) | > 5
36 | O=C(Cc1nccs1)N1CCc2[nH]cnc2C1c1nc2cc(F)ccc2s1 (centres unmarked) | > 5
37 | Cn1ncc(C(=O)N2CCc3[nH]cnc3C2c2nc3c(F)cccc3s2)n1 (centres unmarked) | 1 to 5
38 | COCCc1ncc(C(=O)N2CCc3[nH]cnc3C2c2nc3ccccc3s2)o1 (centres unmarked) | 1 to 5
39 | CC1CN(C(=O)c2cnco2)C(c2nc3c(F)cccc3s2)c2nc[nH]c21 (centres unmarked) | > 5
40 | O=C(c1ncn2ccccc12)N1CCc2[nH]cnc2C1c1nc2ccc(F)cc2s1 (centres unmarked) | 1 to 5
41 | Cc1nc(N2CCOCC2)oc1C(=O)N1CCc2[nH]cnc2C1c1nc2c(F)cccc2s1 (centres unmarked) | 1 to 5
42 | CNC(C)(C)c1nc(C)c(C(=O)N2CCc3[nH]cnc3C2c2nc3c(F)cccc3s2)o1 (centres unmarked) | > 5
43 | Cn1cc(-c2ncc(C(=O)N3CCc4[nH]cnc4[C@H]3c3nc4ccccc4[nH]3)s2)cn1 [(S)-(4-(1H-benzo[d]imidazol-2-yl)-6,7-dihydro-1H-imidazo[4,5-c]pyridin-5(4H)-yl)(2-(1-methyl-1H-pyrazol-4-yl)thiazol-5-yl)methanone] | > 5
44 | Cn1nc(C2CC2)nc1C(=O)N1CCc2[nH]cnc2C1c1nc2ccccc2s1 (centres unmarked) | 1 to 5
45 | Cn1nc(N)cc1C(=O)N1CCc2[nH]cnc2C1c1nc2c(F)cccc2s1 (centres unmarked) | 1 to 5
46 | Cn1nc(N)cc1C(=O)N1CCc2[nH]cnc2C1c1nc2ccccc2s1 (centres unmarked) | 1 to 5
47 | O=C(c1cnco1)N1CCc2[nH]cnc2C1c1nc2c(F)cccc2s1 (centres unmarked) | 1 to 5
